Literature values in article PMC4433633, “A Heparan Sulfate-Binding Cell Penetrating Peptide for Tumor Targeting and Migration Inhibition” (BioMed Research International, 2015).

Conditions: ref [56]
Excerpt: Although CPPs as noninvasive agents have promising biomedical potential for molecular delivery, they are mostly unfeasible for in vivo researches due to nonspecificity of their highly cationic characteristic such as TAT peptide. Due to high uptake rates in vitro and relatively low specificity in vivo of most CPPs, conventional CPPs would be designed for topical applications in CPP-based delivery (Table 1). […] Although TAT peptide (46–57) de ...

## SYGRKKRRQRRR [TAT peptide (46–57), multifunctional CPP […]]
  target specificity in vivo: low target specificity in vivo
